The first assay addresses S. aureus GyrB ATPase (Staphylococcus aureus, UniProt P0A0K8). Nature of the assay: biochemical. As to conditions: compound at 1 μM; one value per test if tested more than once; 1 µM. In short, it runs like this: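 IC50 values derive from 10-point titrations of compound (in DMSO). Phosphate formed from 250 μM ATP was quantified by acidic molybdate/malachite green after quenching.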
Chain of S. aureus GyrB ATPase (P0A0K8 whole entry): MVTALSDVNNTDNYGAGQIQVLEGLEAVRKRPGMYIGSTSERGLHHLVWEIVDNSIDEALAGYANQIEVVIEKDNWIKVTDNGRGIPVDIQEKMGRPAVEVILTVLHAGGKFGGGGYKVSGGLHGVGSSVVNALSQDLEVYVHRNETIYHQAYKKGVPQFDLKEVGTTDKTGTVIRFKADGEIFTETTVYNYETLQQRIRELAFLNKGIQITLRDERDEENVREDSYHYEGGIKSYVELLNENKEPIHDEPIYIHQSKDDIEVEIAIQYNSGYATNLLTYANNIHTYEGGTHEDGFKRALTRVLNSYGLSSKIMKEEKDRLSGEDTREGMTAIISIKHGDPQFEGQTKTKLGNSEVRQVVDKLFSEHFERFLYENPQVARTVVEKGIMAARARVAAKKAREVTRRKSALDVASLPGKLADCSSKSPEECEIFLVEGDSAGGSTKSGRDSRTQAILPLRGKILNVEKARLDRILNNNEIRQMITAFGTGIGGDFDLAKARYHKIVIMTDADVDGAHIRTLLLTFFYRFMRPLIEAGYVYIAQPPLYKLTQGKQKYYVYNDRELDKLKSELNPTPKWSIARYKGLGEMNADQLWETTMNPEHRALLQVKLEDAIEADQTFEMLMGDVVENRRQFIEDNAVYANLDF
Chain of S. aureus GyrB ATPase (P0AES4 whole entry, further chain): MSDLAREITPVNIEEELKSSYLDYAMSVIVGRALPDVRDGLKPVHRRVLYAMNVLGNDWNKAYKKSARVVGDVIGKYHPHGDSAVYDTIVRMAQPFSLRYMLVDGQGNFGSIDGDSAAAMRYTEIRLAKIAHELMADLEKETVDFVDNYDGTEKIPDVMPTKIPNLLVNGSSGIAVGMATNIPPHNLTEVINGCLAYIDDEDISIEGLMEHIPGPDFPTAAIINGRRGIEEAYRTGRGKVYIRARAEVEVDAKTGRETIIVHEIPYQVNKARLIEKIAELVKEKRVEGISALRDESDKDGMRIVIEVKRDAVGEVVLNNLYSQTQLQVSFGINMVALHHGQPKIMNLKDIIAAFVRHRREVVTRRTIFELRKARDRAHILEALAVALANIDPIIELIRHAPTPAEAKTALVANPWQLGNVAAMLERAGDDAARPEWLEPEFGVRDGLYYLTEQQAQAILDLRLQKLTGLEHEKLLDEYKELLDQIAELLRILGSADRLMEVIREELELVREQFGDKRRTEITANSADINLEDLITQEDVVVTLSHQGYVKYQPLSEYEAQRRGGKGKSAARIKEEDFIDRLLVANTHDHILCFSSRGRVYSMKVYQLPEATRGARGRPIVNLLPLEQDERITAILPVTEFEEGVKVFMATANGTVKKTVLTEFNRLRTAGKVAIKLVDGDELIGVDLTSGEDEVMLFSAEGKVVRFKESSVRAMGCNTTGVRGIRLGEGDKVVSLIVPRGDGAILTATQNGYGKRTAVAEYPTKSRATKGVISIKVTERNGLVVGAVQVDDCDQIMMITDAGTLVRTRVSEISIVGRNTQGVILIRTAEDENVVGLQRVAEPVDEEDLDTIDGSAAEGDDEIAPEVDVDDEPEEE
In the case of `CCNC(=O)Nc1cc(-c2nc(C(F)(F)F)cs2)c(-c2ccc3c(c2)c(=O)c(C(=O)O)cn3CC2COCCN2)cn1` (stereo not drawn) [Example 294], the “% Inhibition of S. aureus GyrB ATPase” value was 109%.

The assay is the same for the next values; noted with them: compound at 1 μM; one value per test if tested more than once; read-out: % Inhibition of S. aureus GyrB ATPase.
For the compound `CCNC(=O)Nc1cc(-c2nc(C(F)(F)F)cs2)c(-c2ccc3c(=O)c(C(=O)NCCCO)cn(CCC(C)C)c3c2)cn1` [Example 337, 7-{6-[(ethylcarbamoyl)amino]-4-[4-(trifluoromethyl)-1,3-thiazol-2-yl]pyridin-3-yl}-N-(3-hydroxypropyl)-1-(3-methylbutyl)-4-oxo-1,4-dihydroquinoline-3-carboxamide], the inhibition at 1 µM came to 106%.

In the case of `CCNC(=O)Nc1cc(-c2nc(C(F)(F)F)cs2)c(-c2ccc3c(=O)c(C(=O)O)cn(CCC(C)C)c3c2)cn1` [Example 25, 7-{6-[(ethylcarbamoyl)amino]-4-[4-(trifluoromethyl)-1,3-thiazol-2-yl]pyridin-3-yl}-1-(3-methylbutyl)-4-oxo-1,4-dihydroquinoline-3-carboxylic acid], the inhibition at 1 µM was 99%.

`CCNC(=O)Nc1cc(-c2nc(-c3ccccc3)cs2)c(-c2ccc3c(=O)c(C(=O)O)cn(CC)c3c2)cn1` [Example 15, 1-ethyl-7-(6-(3-ethylureido)-4-(4-phenylthiazol-2-yl)pyridin-3-yl)-4-oxo-1,4-dihydroquinoline-3-carboxylic acid]: the inhibition at 1 µM stood at 101%.

`CCNC(=O)Nc1cc(-c2nc(C(F)(F)F)cs2)c(-c2ccc3c(c2)c(=O)c(C(=O)O)cn3[C@@H]2CCCN(CCN3CCOCC3)C2)cn1` [Example 285, (R)-ethyl 6-(6-(3-ethylureido)-4-(4-(trifluoromethyl)thiazol-2-yl)pyridin-3-yl)-1-(1-(2-morpholinoethyl)piperidin-3-yl)-4-oxo-1,4-dihydroquinoline-3-carboxylic acid]: the inhibition at 1 µM amounted to 105%.

For the compound `CCNC(=O)Nc1cc(-c2nc(C(F)(F)F)cs2)c(-c2ccc3c(c2)c(=O)c(C(=O)O)cn3[C@@H]2CCN(CC)C2)cn1` [Example 250, (R)-1-(1-ethylpyrrolidin-3-yl)-6-(6-(3-ethylureido)-4-(4-(trifluoromethyl)thiazol-2-yl)pyridin-3-yl)-4-oxo-1,4-dihydroquinoline-3-carboxylic acid], the inhibition at 1 µM stood at 112%.

In the case of `CCCNC(=O)Nc1cc(-c2nc(C(F)(F)F)cs2)c(-c2ccc3c(c2)c(=O)c(C(=O)NCCO)cn3C2CCOCC2)cn1` [Example 206, N-(2-hydroxyethyl)-4-oxo-6-(6-(3-propylureido)-4-(4-(trifluoromethyl)thiazol-2-yl)pyridin-3-yl)-1-(tetrahydro-2H-pyran-4-yl)-1,4-dihydroquinoline-3-carboxamide], the inhibition at 1 µM stood at 92%.

As for `CCNC(=O)Nc1cc(-c2nc(C(F)(F)F)cs2)c(-c2ccc3c(=O)c(C(=O)NCCN4CCN(C)CC4)cn(Cc4ccccc4)c3c2)cn1` [Example 358, 1-Benzyl-7-{6-[(ethylcarbamoyl)amino]-4-[4-(trifluoromethyl)-1,3-thiazol-2-yl]pyridin-3-yl}-N-[2-(4-methylpiperazin-1-yl)ethyl]-4-oxo-1,4-dihydroquinoline-3-carboxamide], the inhibition at 1 µM is 95%.

With `CCNC(=O)Nc1cc(-c2nc(C(F)(F)F)cs2)c(-c2ccc3c(c2)c(=O)c(C(=O)O)cn3C(COC)COC)cn1` [Example 4, 1-(1,3-dimethoxypropan-2-yl)-6-(6-(3-ethylureido)-4-(4-(trifluoromethyl)thiazol-2-yl)pyridin-3-yl)-4-oxo-1,4-dihydroquinoline-3-carboxylic acid], the inhibition at 1 µM is 98%.

As to `CCNC(=O)Nc1cc(-c2nc(C(F)(F)F)cs2)c(-c2ccc3c(c2)c(=O)c(C(=O)O)cn3CC2CCCCN2)cn1` (stereo not drawn) [Example 123, 6-(6-(3-ethylureido)-4-(4-(trifluoromethyl)thiazol-2-yl)pyridin-3-yl)-4-oxo-1-(piperidin-2-ylmethyl)-1,4-dihydroquinoline-3-carboxylic acid], the inhibition at 1 µM turned out to be 95%.

`CCNC(=O)Nc1cc(-c2nc(C(F)(F)F)cs2)c(-c2ccc3c(c2)c(=O)c(C(=O)O)cn3C2CN(C)C2)cn1` [Example 24, 6-(6-(3-ethylureido)-4-(4-(trifluoromethyl)thiazol-2-yl)pyridin-3-yl)-1-(1-methylazetidin-3-yl)-4-oxo-1,4-dihydroquinoline-3-carboxylic acid]: the inhibition at 1 µM amounted to 99%.

For the compound `CCNC(=O)Nc1cc(-c2nc(C(F)(F)F)cs2)c(-c2ccc3c(=O)c(C(=O)NCCO)cn(CCOC)c3c2)cn1` [Example 370, 7-{6-[(Ethylcarbamoyl)amino]-4-[4-(trifluoromethyl)-1,3-thiazol-2-yl]pyridin-3-yl}-N-(2-hydroxyethyl)-1-(2-methoxyethyl)-4-oxo-1,4-dihydroquinoline-3-carboxamide], the inhibition at 1 µM amounted to 98%.

As to `CCNC(=O)Nc1cc(-c2nc(C(F)(F)F)cs2)c(-c2ccc3c(c2)c(=O)c(C(=O)N2CCN(C(C)=O)CC2)cn3CCN(C)C)cn1` [Example 162, 1-(5-(3-(4-acetylpiperazine-1-carbonyl)-1-(2-(dimethylamino)ethyl)-4-oxo-1,4-dihydroquinolin-6-yl)-4-(4-(trifluoromethyl)thiazol-2-yl)pyridin-2-yl)-3-ethylurea], the inhibition at 1 µM came out at 106%.

Take `CCNC(=O)Nc1cc(-c2nc(C(F)(F)F)cs2)c(-c2ccc3c(c2)c(=O)c(C(=O)O)cn3[C@H](CO)[C@@H](C)O)cn1` [Example 73, 1-((2R,3R)-1,3-dihydroxybutan-2-yl)-6-(6-(3-ethylureido)-4-(4-(trifluoromethyl)thiazol-2-yl)pyridin-3-yl)-4-oxo-1,4-dihydroquinoline-3-carboxylic acid]: the inhibition at 1 µM amounted to 105%.

`CCNC(=O)Nc1cc(-c2nc(C(F)(F)F)cs2)c(-c2ccc3c(=O)c(C(=O)NCCN(C)C)cn(CC4CC4)c3c2)cn1` [Example 377, 1-(Cyclopropylmethyl)-N-[2-(dimethylamino)ethyl]-7-{6-[(ethylcarbamoyl)amino]-4-[4-(trifluoromethyl)-1,3-thiazol-2-yl]pyridin-3-yl}-4-oxo-1,4-dihydroquinoline-3-carboxamide]: the inhibition at 1 µM was found to be 106%.

In the case of `COCCn1cc(C(=O)O)c(=O)c2cc(-c3cnc(NC(=O)NC(C)C)cc3-c3nc(C(F)(F)F)cs3)ccc21` [Example 194, 6-(6-(3-isopropylureido)-4-(4-(trifluoromethyl)thiazol-2-yl)pyridin-3-yl)-1-(2-methoxyethyl)-4-oxo-1,4-dihydroquinoline-3-carboxylic acid], the inhibition at 1 µM was determined as 93%.

Regarding `CCNC(=O)Nc1cc(-c2nc(C(F)(F)F)cs2)c(-c2ccc3c(=O)c(C(=O)O)cn(C)c3c2)cn1` [Example 22, 7-(6-(3-Ethylureido)-4(4-(trifluoromethyl)thiazol-2-yl)pyridin-3-yl)-1-methyl-4-oxo-1,4-dihydroquinoline-3-carboxylic acid], the inhibition at 1 µM worked out at 99%.

The same assay, now with this note: read-out: % Inhibition of S. aureus GyrB ATPase.
On to `CCNC(=O)Nc1cc(-c2nc(C(F)(F)F)cs2)c(-c2ccc3c(c2)c(=O)c(C(=O)O)cn3CCCN2CCCC2=O)cn1` [Example 7, 6-(6-(3-ethylureido)-4-(4-(trifluoromethyl)thiazol-2-yl)pyridin-3-yl)-4-oxo-1-(3-(2-oxopyrrolidin-1-yl)propyl)-1,4-dihydroquinoline-3-carboxylic acid sodium], for which the inhibition at 1 µM was found to be 100%.

The values above are taken from patent US8283361B2 (AstraZeneca AB, priority 2008, dated 2012).
